Reference: US20200291018A1, “TAM KINASE INHIBITORS” (SYROS PHARMACEUTICALS, INC., priority 2017, published 2020)

Legend:
[1] = target: T1, FLT3 (Homo sapiens, UniProt P36888); experiment: TR-FRET kinase activity assay, FLT3; type: biochemical; conditions: ATP at Km, 60 minutes
T1 sequence (P36888 27-993): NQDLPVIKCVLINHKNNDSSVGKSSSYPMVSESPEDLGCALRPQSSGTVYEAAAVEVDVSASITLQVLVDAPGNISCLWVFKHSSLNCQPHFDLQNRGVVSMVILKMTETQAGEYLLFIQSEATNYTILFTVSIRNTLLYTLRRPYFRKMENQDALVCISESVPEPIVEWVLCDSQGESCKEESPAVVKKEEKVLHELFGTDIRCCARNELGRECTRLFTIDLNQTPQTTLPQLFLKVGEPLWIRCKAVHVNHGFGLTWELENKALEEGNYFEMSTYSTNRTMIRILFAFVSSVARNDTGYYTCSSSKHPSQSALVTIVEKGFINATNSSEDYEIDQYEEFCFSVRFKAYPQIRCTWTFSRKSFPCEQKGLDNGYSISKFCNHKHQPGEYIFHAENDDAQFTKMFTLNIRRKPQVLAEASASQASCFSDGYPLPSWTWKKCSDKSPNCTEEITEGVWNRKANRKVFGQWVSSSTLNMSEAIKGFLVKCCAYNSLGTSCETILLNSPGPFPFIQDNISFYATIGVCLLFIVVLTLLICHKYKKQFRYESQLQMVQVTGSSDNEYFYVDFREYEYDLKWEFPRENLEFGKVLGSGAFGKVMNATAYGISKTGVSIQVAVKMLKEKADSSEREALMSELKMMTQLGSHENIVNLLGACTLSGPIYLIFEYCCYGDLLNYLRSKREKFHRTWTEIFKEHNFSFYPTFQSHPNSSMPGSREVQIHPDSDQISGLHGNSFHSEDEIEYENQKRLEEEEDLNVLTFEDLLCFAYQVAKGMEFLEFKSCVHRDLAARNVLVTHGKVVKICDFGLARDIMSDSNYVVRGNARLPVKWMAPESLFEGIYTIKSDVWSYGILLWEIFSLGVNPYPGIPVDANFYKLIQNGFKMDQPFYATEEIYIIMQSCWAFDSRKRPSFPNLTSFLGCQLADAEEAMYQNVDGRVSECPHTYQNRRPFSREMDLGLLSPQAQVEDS
Procedure, shortened: (§1)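 Enzyme, fluorescent-labeled peptide substrate and compound were mixed, then ATP was added at each enzyme's Km. Buffer was 50 mM HEPES pH 7.5, 10 mM MgCl2, 1 mM EGTA, 0.01% Brij 35, 1 mM DTT at RT. After 60 min, EDTA quench and 30 min with Eu-anti-phosphotyrosine-site antibody; TR-FRET read gave IC50.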

[2] = target: T2, MERTK (Homo sapiens, UniProt Q12866); experiment: TR-FRET kinase activity assay, MERTK; type: biochemical; conditions: for IC50: TR-FRET activity assay, ATP at Km, 60 minutes, read-out: Mer IC50; for Mer/Flt3 ratio (FLT3 IC50/Mer IC50): ratio calculated as FLT3 IC50/Mer IC50
T2 sequence (Q12866 21-999): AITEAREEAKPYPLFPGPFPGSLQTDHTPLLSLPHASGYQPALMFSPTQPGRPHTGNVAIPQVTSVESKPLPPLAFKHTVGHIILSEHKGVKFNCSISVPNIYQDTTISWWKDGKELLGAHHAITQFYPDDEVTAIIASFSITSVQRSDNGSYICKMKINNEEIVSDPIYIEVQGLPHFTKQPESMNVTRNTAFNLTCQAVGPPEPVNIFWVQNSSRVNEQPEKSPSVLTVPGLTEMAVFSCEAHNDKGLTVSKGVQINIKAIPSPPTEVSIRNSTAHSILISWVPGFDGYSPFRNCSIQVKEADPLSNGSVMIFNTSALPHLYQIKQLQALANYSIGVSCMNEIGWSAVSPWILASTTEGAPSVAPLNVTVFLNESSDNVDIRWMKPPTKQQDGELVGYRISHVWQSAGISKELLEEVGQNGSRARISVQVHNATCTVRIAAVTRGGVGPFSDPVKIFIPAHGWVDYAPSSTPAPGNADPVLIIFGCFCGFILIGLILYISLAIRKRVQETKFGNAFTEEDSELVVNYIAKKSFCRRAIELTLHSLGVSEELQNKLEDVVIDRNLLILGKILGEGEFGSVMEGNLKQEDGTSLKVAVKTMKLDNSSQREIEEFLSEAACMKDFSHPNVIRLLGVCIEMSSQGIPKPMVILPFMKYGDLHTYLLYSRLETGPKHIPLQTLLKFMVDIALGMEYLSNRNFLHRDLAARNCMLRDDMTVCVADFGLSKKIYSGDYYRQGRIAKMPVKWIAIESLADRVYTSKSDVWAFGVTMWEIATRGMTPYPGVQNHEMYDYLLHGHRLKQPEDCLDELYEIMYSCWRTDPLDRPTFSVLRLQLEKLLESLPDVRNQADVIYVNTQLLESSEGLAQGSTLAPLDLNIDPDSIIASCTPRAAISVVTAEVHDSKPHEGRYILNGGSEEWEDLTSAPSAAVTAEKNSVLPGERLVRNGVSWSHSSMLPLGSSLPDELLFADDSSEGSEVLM
Procedure, shortened: as §1

Structure (SMILES) | IC50 [1] [nM] | IC50 [2] [nM] | Mer/Flt3 ratio (FLT3 IC50/Mer IC50) [2]
CCCCNc1ncc2c(OC3CCNCC3)ncc([C@H]3CC[C@H](O)CC3)c2n1 [Compound 129] | ≤ 100 | ≤ 100 | + (a ratio of >2.0 and <10)
CCCC(C)Nc1ncc2c(OC3CCC(OC)CC3)ncc([C@H]3CC[C@H](O)CC3)c2n1 (stereo partly drawn) [Compound 147] | 1000 to 10000 | ≤ 100 | +++ (a ratio of >100)
CCCC(C)Nc1ncc2c(O[C@H]3CC[C@H](O)CC3)ncc([C@H]3CC[C@H](O)CC3)c2n1 (stereo partly drawn) [Compound 139] | 100 to 1000 | ≤ 100 | +++ (a ratio of >100)
CC1CC(Nc2ncc3c(OC4CCNCC4)ncc([C@H]4CC[C@@H](O)CC4)c3n2)C1 (stereo partly drawn) [Compound 168] | 100 to 1000 | ≤ 100 | ++ (a ratio of between 10 and 100)
CCCC(C)Nc1ncc2c(OC[C@H]3CC[C@H](O)CC3)ncc([C@H]3CC[C@H](O)CC3)c2n1 (stereo partly drawn) [Compound 160] | 1000 to 10000 | ≤ 100 | +++ (a ratio of >100)
CCCC(C)Nc1ncc2c(N3CC(N(C)C)C3)ncc([C@H]3CC[C@H](O)CC3)c2n1 (stereo partly drawn) [Compound 181] | 1000 to 10000 | ≤ 100 | ++ (a ratio of between 10 and 100)
CCCC(C)Nc1ncc2c(O[C@H]3C[C@H]4CC[C@@H](C3)O4)ncc([C@H]3CC[C@H](O)CC3)c2n1 (stereo partly drawn) [Compound 175] | 100 to 1000 | ≤ 100 | ++ (a ratio of between 10 and 100)
CCCCNc1ncc2c(=O)n(-c3ccc(CN4CCOCC4)cc3)cc([C@H]3CC[C@H](O)CC3)c2n1 [Compound 101] | 100 to 1000 | ≤ 100 | + (a ratio of >2.0 and <10)
COC[C@H](C)Nc1ncc2c(O[C@H]3C[C@@H](O)C3(C)C)ncc([C@H]3CC[C@H](O)CC3)c2n1 [Compound 431] | 1000 to 10000 | ≤ 100 | +++ (a ratio of >100)
CCC[C@H](C)Nc1ncc2c(OC3CCNCC3)ncc([C@H]3CC[C@H](O)CC3)c2n1 [Compound 171] | 100 to 1000 | ≤ 100 | +++ (a ratio of >100)
CC1CC(Nc2ncc3c(OC4CCNCC4)ncc([C@H]4CC[C@H](O)CC4)c3n2)C1 (stereo partly drawn) [Compound 167] | ≤ 100 | ≤ 100 | ++ (a ratio of between 10 and 100)
CCCC(C)Nc1ncc2c(=O)n(C3CCN(C(=O)CN(C)C)CC3)cc([C@H]3CC[C@H](O)CC3)c2n1 (stereo partly drawn) [Compound 192] | 1000 to 10000 | ≤ 100 | +++ (a ratio of >100)
CC(C)Nc1ncc2c(OC3CCNCC3)ncc([C@H]3CC[C@H](O)CC3)c2n1 [Compound 135] | 1000 to 10000 | ≤ 100 | +++ (a ratio of >100)
CCCC(C)Nc1ncc2c(=O)n(C3CCN(C(C)C)CC3)cc([C@H]3CC[C@H](O)CC3)c2n1 (stereo partly drawn) [Compound 186] | 1000 to 10000 | ≤ 100 | +++ (a ratio of >100)
CN1CCC(Nc2ncc3c(OC4CCNCC4)ncc([C@H]4CC[C@H](O)CC4)c3n2)C1=O (stereo partly drawn) [Compound 162] | 1000 to 10000 | 1000 to 10000 | + (a ratio of >2.0 and <10)
CCCC(C)Nc1ncc2c(OCCN3CCOCC3)ncc([C@H]3CC[C@H](O)CC3)c2n1 (stereo partly drawn) [Compound 182] | 100 to 1000 | ≤ 100 | ++ (a ratio of between 10 and 100)
CCCCNc1ncc2c(OC)ncc([C@H]3CC[C@H](O)CC3)c2n1 [Compound 127] | ≤ 100 | ≤ 100 | + (a ratio of >2.0 and <10)
O[C@H]1CC[C@H](c2cnc(OC3CCNCC3)c3cnc(NC4CCCCC4)nc32)CC1 [Compound 183] | 100 to 1000 | ≤ 100 | ++ (a ratio of between 10 and 100)
CCC[C@@H](C)Nc1ncc2c(=O)n(C3CCNCC3)cc([C@H]3CC[C@H](O)CC3)c2n1 [Compound 152] | 1000 to 10000 | ≤ 100 | +++ (a ratio of >100)
O[C@H]1CC[C@H](c2cnc(OC3CCOCC3)c3cnc(NC4CCCC4)nc32)CC1 [Compound 132] | ≤ 100 | ≤ 100 | ++ (a ratio of between 10 and 100)
CO[C@H]1C[C@@H](Oc2ncc([C@H]3CC[C@H](O)CC3)c3nc(N[C@@H](C)CC(F)(F)F)ncc23)C1 [Compound 434] | 100 to 1000 | ≤ 100 | +++ (a ratio of >100)
CCCC(C)Nc1ncc2c(OC3CC(C)(C)N(C)C(C)(C)C3)ncc([C@H]3CC[C@H](O)CC3)c2n1 (stereo partly drawn) [Compound 161] | 100 to 1000 | ≤ 100 | +++ (a ratio of >100)
C[C@@H](CC(F)(F)F)Nc1ncc2c(O[C@H]3C[C@](C)(O)C3)ncc([C@H]3CC[C@H](O)CC3)c2n1 [Compound 430] | 100 to 1000 | ≤ 100 | +++ (a ratio of >100)
CCCC(C)Nc1ncc2c(OC[C@H]3CC[C@@H](O)CC3)ncc([C@H]3CC[C@H](O)CC3)c2n1 (stereo partly drawn) [Compound 157] | 1000 to 10000 | ≤ 100 | ++ (a ratio of between 10 and 100)
CCCCNc1ncc2c(OC3CCOCC3)ncc([C@H]3CC[C@H](O)CC3)c2n1 [Compound 104, (1r,4r)-4-(2-(butylamino)-5-((tetrahydro-2H-pyran-4-yl)oxy)pyrido[4,3-d]pyrimidin-8-yl)cyclohexanol] | ≤ 100 | ≤ 100 | + (a ratio of >2.0 and <10)
CCCC(C)Nc1ncc2c(N(C)C3CCNCC3)ncc([C@H]3CC[C@H](O)CC3)c2n1 (stereo partly drawn) [Compound 179] | 1000 to 10000 | ≤ 100 | ++ (a ratio of between 10 and 100)
CCCC(C)Nc1ncc2c(OC3CCC(F)(F)CC3)ncc([C@H]3CC[C@H](O)CC3)c2n1 (stereo partly drawn) [Compound 153] | 1000 to 10000 | ≤ 100 | +++ (a ratio of >100)
CCCCC[C@H](C)Nc1ncc2c(OC3CCNCC3)ncc([C@H]3CC[C@H](O)CC3)c2n1 [Compound 130] | 1000 to 10000 | ≤ 100 | +++ (a ratio of >100)
O[C@H]1CC[C@H](c2cnc(OC3CCNCC3)c3cnc(NC4CCC(F)(F)CC4)nc32)CC1 [Compound 164] | 1000 to 10000 | ≤ 100 | ++ (a ratio of between 10 and 100)
CCCC(C)Nc1ncc2c(OC3CCS(=O)(=O)CC3)ncc([C@H]3CC[C@@H](O)CC3)c2n1 (stereo partly drawn) [Compound 142] | 1000 to 10000 | ≤ 100 | ++ (a ratio of between 10 and 100)
